From patent US20100204156A1, “USE OF THYMOPENTIN AS A THERAPEUTIC AGENT” (priority 2007, published 2010)
Residues, ends and D or L forms follow the SMILES beside them.

Columns and labels:
CEM-SS cells = test: Cell viability / cytotoxicity (MTS) in the HIV-1 assay; conditions: peptide 10 micrograms per ml, MTS
HIV-1IIIB = test: HIV-1 antiviral assay (CPE reduction, MTS) in CEM-SS cells; format: cell-based; conditions: peptide 10 micrograms per ml, 6 days post-infection
[1] = test system: hepatitis B virus (HBV) ayw strain; test: HBV assay: secreted HBV DNA by real-time TaqMan PCR in HepG2-2.2.15 cells; format: cell-based; conditions: test peptide 10 micrograms per ml; six days; HBV DNA in supernatant
Text: HepG2-2.2.15 is a stable cell line containing the hepatitis B virus (HBV) ayw strain genome (ATCC Cat. No. CRL-11997). Antiviral compounds blocking any late step of viral replication such as transcription, translation, pregenome encapsidation, reverse transcription, particle assembly and release can be identified and characterized using this cell line. In this assay, an active compound will reduce the production of secreted HBV from cells, measured by utilizing real time quantitative PCR (TaqMan) assay to directly and accurately measure HBV DNA copies.
HepG2-2.2.15 cells were plated in 96-well microtiter plates. After 16-24 hours the confluent monolayer of HepG2-2.2.15 cells was washed and the medium was replaced with complete medium containing test peptide—10 micrograms per ml—in duplicate. […] Six days following the initial administration of the peptide, the cell culture supernatants was collected, treated with pronase and DNAse and then used in a real-time quantitative TaqMan PCR assay. The PCR-amplified HBV DNA was detected in real-time by monitoring increases in fluorescence signals that result from the exonucleolytic degradation of a quenched fluorescence probe molecule that hybridizes to the amplified HBV DNA. […] Antiviral activity was calculated from the reduction in HBV DNA levels (% virus control). […]

[2] = Cell viability (dye uptake) in the HBV assay; format: cell-based; conditions: human, HepG2-2.2.15 cells, test peptide 10 micrograms per ml
HCMV strain AD169 = test: HCMV plaque reduction assay in MRC-5 cells; format: cell-based; conditions: HCMV AD169 in MRC-5 cells; peptide 10 micrograms per ml; 7-10 days
Text: (§1) Ganciclovir was used as positive control.

[3] = Cytotoxicity testing (CellTiter 96) in MRC-5 cells; format: cell-based; conditions: human, MRC-5 cells (human embryonal lung fibroblasts), 6 days incubation, read-out: % Cell viability
Text: as §1

MRSA = test: Methicillin Resistant Staphylococcus Aureus (MRSA) assay; format: cell-based; conditions: MRSA growth; peptide 10 micrograms per ml; read visually
Pseudomonas aeruginosa = Pseudomonas aeruginosa assay; format: cell-based; conditions: Pseudomonas aeruginosa growth; peptide 10 micrograms per ml; read visually
Streptococcus pneumoniae = Streptococcus pneumoniae assay; format: cell-based; conditions: Streptococcus pneumoniae growth; peptide 10 micrograms per ml; read visually
Human A549 cells [4] = test: Propidium iodide cell cycle assay; format: cell-based; conditions: 24 hours, test peptide 10 micrograms per ml, FACS
Text: Human A549 cells (carcinomic human alveolar basal epithelial cells) were utilized in the experiments employing the Propidium iodide cell cycle assay. The eukaryotic cell cycle is a series of events that take place in a cell leading to its replication. The regulation of the cell cycle involves steps crucial to the cell, including detecting and repairing genetic damage, and provision of various checks to prevent uncontrolled cell division. The molecular events that control the cell cycle are ordered and directional; that is, each process occurs in a sequential fashion. The cell cycle consists of four distinct phases: G1 phase, S phase, G2 phase (collectively known as interphase) and M phase. M phase is itself composed of two tightly coupled processes: mitosis, in which the cell's chromosomes are divided between the two daughter cells, and cytokinesis, in which the cell's cytoplasm divides forming distinct cells. Activation of each phase is dependent on the proper progression and completion of the previous one. Cells that have temporarily or reversibly stopped dividing are said to have entered a state of quiescence called Go phase. The relatively brief M phase consists of nuclear division and cytoplasmic division. The first phase within interphase, from the end of the previous M phase till the beginning of DNA synthesis is called G1 (G indicating gap or growth). During this phase the biosynthetic activities of the cell resume at a high rate. This phase is marked by synthesis of various enzymes that are required in S phase, mainly those needed for DNA replication. The ensuing S phase starts when DNA synthesis commences; when it is complete, all of the chromosomes have been replicated. The cell then enters the G2 phase, which lasts until the cell enters mitosis. Significant protein synthesis occurs during this phase, mainly involving the production of microtubules, which are required during the process of mitosis. […]
Propidium iodide is an intercalating agent and a fluorescent molecule that can be used to stain DNA. […] After incubation for 40 min at 37° C., cells were analyzed in the FACS.

[5] = test system: Human Peripheral Blood Mononuclear Cells (PBMC); test: T cell proliferation assay (PHA, 3H-thymidine); format: cell-based; conditions: test peptide 10 micrograms per ml
Procedure: (§2) Human Peripheral Blood Mononuclear Cells (PBMC) were obtained from normal human donors. The T cell proliferation was induced by stimulation of the cells with the T cell mitogen phytohemagglutinin (PHA), either in the absence (positive proliferation control), or in the presence of test peptide—10 micrograms per ml—to examine their effects on the T cell proliferating response. 10^5/well PBMC were plated in 96-well microtiter plates and assayed in duplicate with the peptide. Cell cultures were incubated at 37° C. for 3 days in a 5% CO2 incubator and were thereafter pulsed with 1 microCi/well ^3H-thymidine for additional 12 hours of culture. At the end of incubation time, the plates were harvested and the cells counted by liquid scintillation for the incorporation of ^3H-thymidine as a measure of T cell proliferation.

[6] = test system: Human Peripheral Blood Mononuclear Cells (PBMC); test: B cell proliferation assay (SAC plus Interleukin-2, 3H-thymidine); format: cell-based; conditions: test peptide 10 micrograms per ml
Procedure: as §2, with “The B” for “The T”, “the B” for “the T”, “mitogen Staphylococcus aureus Cowans I (SAC) plus Interleukin-2,” for “mitogen phytohemagglutinin (PHA),”, “cell” for “cell proliferating”, “of B” for “of T”

Human A549 cells [7] = test: Apoptosis induction assay (Annexin-5); format: cell-based; conditions: 24 hours, test peptide 10 micrograms per ml
Text: Human A549 cells (carcinomic human alveolar basal epithelial cells) were utilized in the experiments employing the Annexin-5 apoptosis assay. Annexin-5 is a member of a highly conserved protein family that binds acidic phospholipids in a calcium-dependent manner. […] Phosphatidylserine is translocated from the inner side of the plasma membrane to the outer layer when cells undergo death by apoptosis or cell necrosis and serves as a signal by which cell destined for death are recognized by phagocytes. Test peptide—10 micrograms per ml—were exposed for 24 hours to the A549 cells before they were analyzed for signs of apoptosis.

Human A549 cells [8] = test: Apoptosis prevention assay (Annexin-5, C2 ceramide); format: cell-based; conditions: A549 cells pretreated 30 min, test peptide 10 micrograms per ml
Text: Human A549 cells (carcinomic human alveolar basal epithelial cells) were utilized in the experiments employing the Annexin-5 apoptosis assay. Annexin-5 is a member of a highly conserved protein family that binds acidic phospholipids in a calcium-dependent manner. […] Phosphatidylserine is translocated from the inner side of the plasma membrane to the outer layer when cells undergo death by apoptosis or cell necrosis and serves as a signal by which cell destined for death are recognized by phagocytes. A549 cells were pretreated for 30 min with test peptide—10 micrograms per ml—followed by the exposure to C2 ceramide. Ceramide mediates cell apoptosis through the activation of the mitogen activating protein kinase (MAPK) and the stress activated kinase (JNK/SAPK). C2 ceramide is a synthetic, membrane soluble analog of ceramide.

[9] = test system: spleen cells of Ovalbumin-immunized Balb/c mice; test: Th1/Th2 cytokine profiling assay (Mouse Th1/Th2 Cytokine CBA Kit); format: cell-based; conditions: test peptide 10 micrograms per ml; Ovalbumin restimulation, 72 hours
Text: The Balb/c mice (originated in 1923, it is a popular strain and is used in many different research disciplines. Also classified as an inbred from the production of 20 or more successive brother-sister matings, the Balb/c mouse is albino and small in size) were immunized on Days 1, 15, and 29 with Ovalbumin (Ovalbumin is the main protein found in egg white, commonly used to stimulate an immunological reaction in test animals) in PBS (5 micrograms/injection). On day 50, spleens of the mice were harvested (3 weeks after last boost with Ovalbumin). […] Thereafter, additional Ovalbumin was added to the cells at 10 micrograms/ml for in vitro restimulation of the cells. 72 hours later, cell supernatants were harvested and assayed using the Becton Dickinson Mouse Th1/Th2 Cytokine CBA Kit. This kit can be used to measure Interleukin-2 (IL-2), Interleukin-4 (IL-4), Interleukin-5 (IL-5), Interferon-γ (IFN-γ), and Tumor Necrosis Factor-α (TNF-α) protein levels in a single sample. The kit performance has been optimized for analysis of physiologically relevant concentrations ([…] levels) of specific cytokine proteins in tissue culture supernatants and serum samples.

[10] = test system: macrophages differentiated from Human PBMC; test: TNF alpha production assay (LPS-stimulated macrophages, ELISA); format: cell-based; conditions: test peptide 10 micrograms per ml, lipopolysaccharide 200 ng/ml, overnight
Procedure: Human Peripheral Blood Mononuclear Cells (PBMC) were obtained from normal human donors. The macrophages were prepared by adherence of PBMC to the plastic wells of the plates. […] Not stimulated macrophages served as negative background control. After overnight incubation, supernatants from the control and LPS-stimulated cultures were harvested and assayed for TNF alpha production employing a TNF alpha specific ELISA.

[11] = test system: Primary Human endothelial cells (HUVEC); test: Endothelial cell migration assay; format: cell-based; conditions: 22 hours, test peptide 10 micrograms per ml
HUVEC = test: Endothelial tube formation assay; format: cell-based, Human; conditions: 20 hours, test peptide 10 micrograms per ml
Text: Positive control was vehicle only.

[12] = Cell viability / cytotoxicity (MTS) in the HIV-1 assay; conditions: human, CEM-SS cells

For `Cc1cn([C@H]2C[C@H](N=[N+]=[N-])[C@@H](CO)O2)c(=O)[nH]c1=O` [AZT, reference compound], the “% Cell viability” value (CEM-SS cells) was 97%.
For `CC(C)[C@H](NC(=O)[C@H](CC(=O)O)NC(=O)[C@H](CCCCN)NC(=O)[C@@H](N)CCCN=C(N)N)C(=O)N[C@@H](Cc1ccc(O)cc1)C(=O)O` [Thymopentin, Arg-Lys-Asp-Val-Tyr-OH] (H-RKDVY-OH), the “% CPE reduction in HIV-1 infected CEM-SS cells” value (HIV-1IIIB) was 0.0%, the “% inhibition of HBV replication in HEP G2 cells” value [1] was 6.2% and the viability at 144 h, 10 micrograms per ml [2] was 100%. For the same compound, the “% plaque reduction” value (HCMV strain AD169) was 1.4%, the viability at 144 h [3] was 100% and the “% inhibition” value (MRSA) was 0.0%. The “% inhibition” value (Pseudomonas aeruginosa) was 0.0%, the “% inhibition” value (Streptococcus pneumoniae) was 0.0% and the “Cell cycle analysis G0/G1” value (Human A549 cells [4]) was 54.6. The “Cell cycle analysis G2/M” value (Human A549 cells [4]) was 10.7, the “Cell cycle analysis S” value (Human A549 cells [4]) was 34.8 and the “% of PHA induced control” value [5] was 89.1%. The “% of SAC/IL2 induced control” value [6] was 94.4%, the “% of induction” value (Human A549 cells [7]) was 0.6% and the “% prevention of ceramide induced apoptosis” value (Human A549 cells [8]) was 0.0%. The “IFNγ spleen cells; TH1 response (% of control)” value [9] was 62.0 % of control, the “IL-2 spleen cells (% of control)” value [9] was 122.2 % of control and the “IL-4 spleen cells; TH2 response (% of control)” value [9] was 170.6 % of control. For the same compound, the “IL-5 spleen cells; TH2 response (% of control)” value [9] was 73.8 % of control, the “TNF-a spleen cells; TH1 response (% of control)” value [9] was 109.6 % of control and the “% of LPS induction” value [10] was 108.9%. The “% inhibition of migration” value [11] was 7%, the “% inhibition of tube formation” value (HUVEC) was 31% and the viability at 10 micrograms per ml [12] was 100%.
